Source: patent US4471131A, “Novel silyl esters of N-phosphonomethylglycine” (Monsanto Company, priority 1983, dated 1984)

Legend:
Assay in all cases: post-emergence herbicidal activity, greenhouse
Type in all cases: in vivo
[1] = test system: Downy Brome
Procedure, shortened: (§1)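 Foliar spray, chamber, atomizer; plants 2–3 weeks old in topsoil pans; emulsifier ~0.4% by weight; rates as listed. Rating: injury relative to controls, ~2 and ~4 WAT.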

[2] = test system: Common Lambsquarters
Procedure, shortened: as §1

[3] = test system: Soybean; settings: Table III
Procedure, shortened: as §1

[4] = test system: Morningglory
Procedure, shortened: as §1

[5] = Table II, 2 WAT, 5.6 kg/h, formulated in anhydrous tetrahydrofuran
[6] = Table II, 2 WAT, 11.2 kg/h, formulated in anhydrous tetrahydrofuran
[7] = Table II, 4 WAT, 5.6 kg/h, formulated in anhydrous tetrahydrofuran
[8] = Table II, 4 WAT, 11.2 kg/h, formulated in anhydrous tetrahydrofuran
[9] = Table III, 2 WAT, 1.1 kg/h, formulated in anhydrous tetrahydrofuran
[10] = Table III, 2 WAT, 5.6 kg/h, formulated in anhydrous tetrahydrofuran
[11] = Table III, 2 WAT, .28 kg/h, formulated in anhydrous tetrahydrofuran
[12] = Table III, 4 WAT, 1.1 kg/h, formulated in anhydrous tetrahydrofuran
[13] = Table III, 4 WAT, 5.6 kg/h, formulated in anhydrous tetrahydrofuran
[14] = Table III, 4 WAT, .28 kg/h, formulated in anhydrous tetrahydrofuran

CCCCOC(=O)CNCP(=O)(O)O[Si](c1ccccc1)(c1ccccc1)C(C)(C)C [Ex. 6, Glycine, N--((([(1,1-Dimethylethyl)Diphenylsilyl]Oxy)Hydroxyphosphinyl)methyl)-Butyl Ester]
1 (25-49% inhibition): Plant Response Index (J) ([1]; Table II, 4 WAT, 11.2 kg/h) | Plant Response Index (J) ([1]; Table III, 2 WAT, 1.1 kg/h) | Plant Response Index (J) [1, 9] | Plant Response Index (J) ([1]; Table III, 2 WAT, 5.6 kg/h) | Plant Response Index (J) [1, 10] | Plant Response Index (J) ([1]; Table III, 2 WAT, .28 kg/h) | Plant Response Index (J) ([1]; Table III, 4 WAT, 1.1 kg/h) | Plant Response Index (J) [1, 12] | Plant Response Index (E) [2, 5] | Plant Response Index (E) [2, 11] | Plant Response Index (E) [2, 14] | Plant Response Index (L) ([3]; 2 WAT, 1.1 kg/h) | Plant Response Index (L) ([3]; 2 WAT, 1.1 kg/h, formulated in anhydrous tetrahydrofuran) | Plant Response Index (L) ([3]; 2 WAT, 5.6 kg/h) | Plant Response Index (L) ([3]; 2 WAT, .28 kg/h, formulated in anhydrous tetrahydrofuran) | Plant Response Index (L) ([3]; 4 WAT, 1.1 kg/h) | Plant Response Index (L) ([3]; 4 WAT, 1.1 kg/h, formulated in anhydrous tetrahydrofuran) | Plant Response Index (L) ([3]; 4 WAT, 5.6 kg/h) | Plant Response Index (L) ([3]; 4 WAT, .28 kg/h, formulated in anhydrous tetrahydrofuran) | Plant Response Index (D) [4, 5] | Plant Response Index (D) ([4]; Table III, 2 WAT, .28 kg/h) | Plant Response Index (D) [4, 11] | Plant Response Index (D) [4, 14]
4 (100% inhibition): Plant Response Index (E) ([2]; Table II, 4 WAT, 11.2 kg/h) | Plant Response Index (E) [2, 8] | Plant Response Index (E) [2, 12] | Plant Response Index (E) [2, 13]
0 (0-24% inhibition): Plant Response Index (J) [1, 5] | Plant Response Index (J) ([1]; Table II, 2 WAT, 11.2 kg/h) | Plant Response Index (J) [1, 6] | Plant Response Index (J) ([1]; Table II, 4 WAT, 5.6 kg/h) | Plant Response Index (J) [1, 7] | Plant Response Index (J) [1, 8] | Plant Response Index (J) [1, 11] | Plant Response Index (J) [1, 14] | Plant Response Index (L) ([3]; 2 WAT, .28 kg/h)
2 (50-74% inhibition): Plant Response Index (J) [1, 13] | Plant Response Index (E) ([2]; Table II, 2 WAT, 5.6 kg/h) | Plant Response Index (E) ([2]; Table II, 4 WAT, 5.6 kg/h) | Plant Response Index (L) ([3]; 2 WAT, 5.6 kg/h, formulated in anhydrous tetrahydrofuran) | Plant Response Index (L) ([3]; 4 WAT, 5.6 kg/h, formulated in anhydrous tetrahydrofuran) | Plant Response Index (D) ([4]; Table II, 2 WAT, 5.6 kg/h) | Plant Response Index (D) ([4]; Table II, 2 WAT, 11.2 kg/h) | Plant Response Index (D) [4, 6] | Plant Response Index (D) ([4]; Table II, 4 WAT, 5.6 kg/h) | Plant Response Index (D) [4, 7] | Plant Response Index (D) ([4]; Table II, 4 WAT, 11.2 kg/h) | Plant Response Index (D) [4, 8] | Plant Response Index (D) ([4]; Table III, 2 WAT, 1.1 kg/h) | Plant Response Index (D) [4, 9] | Plant Response Index (D) ([4]; Table III, 2 WAT, 5.6 kg/h) | Plant Response Index (D) [4, 10] | Plant Response Index (D) ([4]; Table III, 4 WAT, 1.1 kg/h) | Plant Response Index (D) [4, 12] | Plant Response Index (D) [4, 13]
3 (75-99% inhibition): Plant Response Index (J) ([1]; Table III, 4 WAT, 5.6 kg/h) | Plant Response Index (E) ([2]; Table II, 2 WAT, 11.2 kg/h) | Plant Response Index (E) [2, 6] | Plant Response Index (E) [2, 7] | Plant Response Index (E) ([2]; Table III, 2 WAT, 1.1 kg/h) | Plant Response Index (E) [2, 9] | Plant Response Index (E) ([2]; Table III, 2 WAT, 5.6 kg/h) | Plant Response Index (E) [2, 10] | Plant Response Index (E) ([2]; Table III, 2 WAT, .28 kg/h) | Plant Response Index (E) ([2]; Table III, 4 WAT, 1.1 kg/h) | Plant Response Index (E) ([2]; Table III, 4 WAT, 5.6 kg/h) | Plant Response Index (D) ([4]; Table III, 4 WAT, 5.6 kg/h)
